Measured values as given in patent US8946478B2, “Benzamide derivative with anticancer activity and preparation method and use thereof” (Zhejiang Hisun Pharmaceutical Co., Ltd., priority 2010, dated 2015).

Experiments:
[1] = system: human colon cancer cell strain Colo205 xenograft; experiment: Human cancer xenograft tumor model in nude mouse; assay type: in vivo, BALB/C nude mice; settings: Colo-205 model, 21 d, intraperitoneal once a day, T/C < 60% = effective
Source text: (§1) 5-6 week old female or male BALB/C nude mice, about 18-20 g in weight, were raised. Human cancer xenograft tumor model in nude mouse was established by the following steps: human colon cancer cell strains HCT-116 and Colo205, human breast cancer cell strain MDA-MB435, human prostate cancer cell strain BXPC-3, human ovarian cancer cell strain SKOV-3, human lung cancer cell strain A549, human pancreatic cancer cell strain PANC-1, and human uterine cancer cell strain Hela were all obtained from ATCC. Each cell strain was cultured, and monolayer of cultured tumor cells were digested off the walls, collected and resuspended in serum-free culture medium, and adjusted to a concentration of 2×10^6/0.2 mL, which was then brought to the animal room in an ice box. 0.2 mL cell suspension was drawn directly by a syringe with […] and subcutaneously transplanted into the scapula part of the rear part of nude mouse's left armpit, 2×10^6/0.2 mL for each mouse, and the tumor volume was measured every 2-3 days. After two weeks, tumor was removed under sterile conditions from tumor-bearing nude mice with vigorous tumor growth and without diabrosis. The tumor tissue was cut into pieces of about 2˜3 mm and inoculated subcutaneously into the scapula part of the rear part of nude mouse's left armpit. After three passages, when the tumor volume reached 100 mm^3, the nude mice with too large or too small tumors were eliminated and the rest were randomly divided into groups for the administration.
(§2) The mice were randomly divided into 5 groups, including negative control group (solvent), positive control group (BSI-201, 80 mg/kg), and three treatment groups with high, middle and low doses (40 mg/kg, 30 mg/kg, and 20 mg/kg respectively, wherein the high dose was below the MTD), and there were 8 nude mice in each group except that there are 16 ones in the negative control group. They were administered by intraperitoneal injection once a day for 3 consecutive weeks, during which body weight and tumor volume of the animals were detected and the death number of animals was recorded every 2 days. The animals were sacrificed 24 hours after the last administration, and the volume sizes of tumor, tumor weight, and body weight of nude mice were measured; growth curves of tumor volume, growth curves of body weight of nude mice and tumor inhibition rate, animal mortality were plotted, and relative tumor proliferation rate T/C (%) was calculated according to the equation T/C (%)=TRTV/CRTV*100%. (TRTV: RTV of the treatment group; CRTV: RTV of the negative control group, relative tumor volume RTV=Vt/V0, wherein V0 is the tumor volume when the mice were divided into groups for administration, Vt is the tumor volume after the administration).

[2] = system: human breast cancer cell strain MDA-MB435 xenograft; experiment: Human cancer xenograft tumor model in nude mouse; assay type: in vivo, BALB/C nude mice; settings: MDA-MB-435 model, 21 d, intraperitoneal once a day, T/C < 60% = effective
Source text: as §1, §2

[3] = system: human lung cancer cell strain A549 xenograft; experiment: Human cancer xenograft tumor model in nude mouse; assay type: in vivo, BALB/C nude mice; settings: 21 d, intraperitoneal once a day, T/C < 60% = effective
Source text: as §1, §2

[4] = system: human prostate cancer cell strain BXPC-3 xenograft; experiment: Human cancer xenograft tumor model in nude mouse; assay type: in vivo, BALB/C nude mice; settings: BXPC-3 model, 22 d, intraperitoneal once a day, T/C < 60% = effective
Source text: as §1, §2

[5] = system: human pancreatic cancer cell strain PANC-1 xenograft; experiment: Human cancer xenograft tumor model in nude mouse; assay type: in vivo, BALB/C nude mice; settings: PANC-1 model, 21 d, intraperitoneal once a day, T/C < 60% = effective
Source text: as §1, §2

[6] = system: human ovarian cancer cell strain SKOV-3 xenograft; experiment: Human cancer xenograft tumor model in nude mouse; assay type: in vivo, BALB/C nude mice; settings: SKOV-3 model, 21 d, intraperitoneal once a day, T/C < 60% = effective
Source text: as §1, §2

[7] = system: human colon cancer cell strain HCT-116 xenograft; experiment: Human cancer xenograft tumor model in nude mouse; assay type: in vivo, BALB/C nude mice; settings: HCT-116 model, 21 d, intraperitoneal once a day, T/C < 60% = effective
Source text: as §1, §2

[8] = system: human uterine cancer cell strain Hela xenograft; experiment: Human cancer xenograft tumor model in nude mouse; assay type: in vivo, BALB/C nude mice; settings: 21 d, intraperitoneal once a day, T/C < 60% = effective
Source text: as §1, §2

[9] = system: human cancer xenograft tumor models; experiment: In vivo efficacy screening, summary over the xenograft models; design: species or system BALB/C nude mice; settings: 30 mg/kg I-1 against 80 mg/kg BSI-201, nude mouse xenografts
Source text: 5-6 week old female or male BALB/C nude mice, about 18-20 g in weight, were raised. Human cancer xenograft tumor model in nude mouse was established by the following steps: human colon cancer cell strains HCT-116 and Colo205, human breast cancer cell strain MDA-MB435, human prostate cancer cell strain BXPC-3, human ovarian cancer cell strain SKOV-3, human lung cancer cell strain A549, human pancreatic cancer cell strain PANC-1, and human uterine cancer cell strain Hela were all obtained from ATCC. […] 0.2 mL cell suspension was drawn directly by a syringe with […] and subcutaneously transplanted into the scapula part of the rear part of nude mouse's left armpit, 2×10^6/0.2 mL for each mouse, and the tumor volume was measured every 2-3 days. […]
The mice were randomly divided into 5 groups, including negative control group (solvent), positive control group (BSI-201, 80 mg/kg), and three treatment groups with high, middle and low doses (40 mg/kg, 30 mg/kg, and 20 mg/kg respectively, wherein the high dose was below the MTD), and there were 8 nude mice in each group except that there are 16 ones in the negative control group. They were administered by intraperitoneal injection once a day for 3 consecutive weeks, during which body weight and tumor volume of the animals were detected and the death number of animals was recorded every 2 days. […]

| SMILES | Relative tumor proliferation rate T/C (%) ([1]; 30 mg/kg) | Relative tumor proliferation rate T/C (%) ([2]; 30 mg/kg) | Relative tumor proliferation rate T/C (%) ([3]; 30 mg/kg) | Relative tumor proliferation rate T/C (%) ([4]; 30 mg/kg) | Relative tumor proliferation rate T/C (%) ([5]; 30 mg/kg) | Relative tumor proliferation rate T/C (%) ([6]; 30 mg/kg) | Relative tumor proliferation rate T/C (%) ([7]; 30 mg/kg) | Relative tumor proliferation rate T/C (%) ([8]; 30 mg/kg) | in vivo efficacy compared with BSI-201 (in words) [9] | Relative tumor proliferation rate T/C (%) ([1]; 80 mg/kg) | Relative tumor proliferation rate T/C (%) ([2]; 80 mg/kg) | Relative tumor proliferation rate T/C (%) ([3]; 80 mg/kg) | Relative tumor proliferation rate T/C (%) ([4]; 80 mg/kg) | Relative tumor proliferation rate T/C (%) ([5]; 80 mg/kg) | Relative tumor proliferation rate T/C (%) ([6]; 80 mg/kg) | Relative tumor proliferation rate T/C (%) ([7]; 80 mg/kg) | Relative tumor proliferation rate T/C (%) ([8]; 80 mg/kg) |
| --- | --- | --- | --- | --- | --- | --- | --- | --- | --- | --- | --- | --- | --- | --- | --- | --- | --- |
| C#Cc1ccc(C(N)=O)cc1[N+](=O)[O-] [Compound I-1, 4-ethynyl-3-nitrobenzamide] | 42%(30, 21) | 40%(30, 21) | 40%(30, 21) | 43%(30, 22) | 40%(30, 21) | 45%(30, 21) | 52%(30, 21) | 50%(30, 21) | equivalent efficacy to that of 80 mg/kg BSI-201 | – | – | – | – | – | – | – | – |
| NC(=O)c1ccc(I)c([N+](=O)[O-])c1 [BSI-201, 4-iodo-3-nitrobenzamide, reference compound] | – | – | – | – | – | – | – | – | – | 50%(80, 21) | 44%(80, 21) | 42%(80, 21) | 48%(80, 22) | 45%(80, 21) | 41%(80, 21) | 54%(80, 21) | 48%(80, 21) |
